{"source": "paper PMC11882969", "about": "(Nature Communications, 2025)", "key": {"hCB1": {"target": "hCB1 (Homo sapiens, UniProt P21554)", "sequence (P21554 whole entry)": "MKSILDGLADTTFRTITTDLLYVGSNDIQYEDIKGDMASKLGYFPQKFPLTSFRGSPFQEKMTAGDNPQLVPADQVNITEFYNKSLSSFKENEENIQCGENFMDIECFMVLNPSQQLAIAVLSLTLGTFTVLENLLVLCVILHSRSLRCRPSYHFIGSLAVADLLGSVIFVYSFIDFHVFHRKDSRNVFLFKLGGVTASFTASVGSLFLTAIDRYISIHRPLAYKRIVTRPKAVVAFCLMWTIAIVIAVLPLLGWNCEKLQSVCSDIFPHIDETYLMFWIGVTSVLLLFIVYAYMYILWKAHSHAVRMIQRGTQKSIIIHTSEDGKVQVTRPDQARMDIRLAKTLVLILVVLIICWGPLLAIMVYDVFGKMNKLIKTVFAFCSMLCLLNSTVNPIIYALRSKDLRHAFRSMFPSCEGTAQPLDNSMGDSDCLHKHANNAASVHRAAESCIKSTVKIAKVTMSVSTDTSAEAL", "experiment": "bioSensAll ebBRET signaling profiling, hCB1", "format": "cell-based", "design": "host or cells: HEK293SL cells, transient PEI transfection", "settings": "for Gi1 hCB1 response: Gi1 biosensor; for Gi1 hCB1 / GoB hCB1: single replicate values, FigS6a"}, "CB1 (rCB1)": {"target": "CB1 (rCB1) (Rattus norvegicus, UniProt P20272)", "sequence (P20272 whole entry)": "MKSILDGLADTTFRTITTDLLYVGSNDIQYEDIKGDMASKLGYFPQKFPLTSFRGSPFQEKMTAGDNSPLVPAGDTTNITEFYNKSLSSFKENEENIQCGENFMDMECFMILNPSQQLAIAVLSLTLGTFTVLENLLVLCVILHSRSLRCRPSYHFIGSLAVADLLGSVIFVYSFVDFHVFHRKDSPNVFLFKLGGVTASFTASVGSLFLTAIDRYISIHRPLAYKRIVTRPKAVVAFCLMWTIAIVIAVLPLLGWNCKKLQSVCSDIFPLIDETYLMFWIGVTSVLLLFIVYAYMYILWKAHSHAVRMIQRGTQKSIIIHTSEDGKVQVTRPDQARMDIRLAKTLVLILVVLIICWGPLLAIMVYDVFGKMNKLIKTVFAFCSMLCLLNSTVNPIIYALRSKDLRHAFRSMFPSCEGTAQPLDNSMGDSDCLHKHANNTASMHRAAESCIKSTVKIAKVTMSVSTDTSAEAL", "experiment": "Radioligand competition binding, [3H]-CP-55,940, rat brain membranes"}}, "note": "Several values for one entry are separate records, joined by “and”; a condition that tells them apart may be missing. Equal entries are not always repeated."}
{"molecule": "Cc1cc(C(=O)N(C)C(c2ccco2)c2ccco2)nn1-c1cccc(C(F)(F)F)c1", "note": "[‘4388]", "values": [{"measurement": "Gi1 hCB1 response", "setting": "hCB1; Log [Compound] (M) -4.22186", "result": -4.018}, {"measurement": "Gi1 hCB1 response", "setting": "hCB1; Log [Compound] (M) -4.63927", "result": -19.2595}, {"measurement": "Gi1 hCB1 response", "setting": "hCB1; Log [Compound] (M) -5.05788", "result": -23.1763}, {"measurement": "Gi1 hCB1 response", "setting": "hCB1; Log [Compound] (M) -5.47381", "result": 10.5525}, {"measurement": "Gi1 hCB1 response", "setting": "hCB1; Log [Compound] (M) -5.89285", "result": -11.6498}, {"measurement": "Gi1 hCB1 response", "setting": "hCB1; Log [Compound] (M) -6.31878", "result": -15.6337}, {"measurement": "Gi1 hCB1 response", "setting": "hCB1; Log [Compound] (M) -6.72585", "result": 2.07}, {"measurement": "Gi1 hCB1 response", "setting": "hCB1; Log [Compound] (M) -7.14267", "result": 5.942}, {"measurement": "Gi1 hCB1 response", "setting": "hCB1; Log [Compound] (M) -7.55284", "result": 4.107}, {"measurement": "Gi1 hCB1 response", "setting": "hCB1; Log [Compound] (M) -8", "result": 5.7853}, {"measurement": "Gi1 hCB1 response", "setting": "hCB1; Log [Compound] (M) -8.22186", "result": 57.4864}, {"measurement": "Gi1 hCB1 response", "setting": "hCB1; Log [Compound] (M) -8.39794", "result": -7.509}, {"measurement": "Gi1 hCB1 response", "setting": "hCB1; Log [Compound] (M) -8.68787", "result": 16.0808}, {"measurement": "Gi1 hCB1 response", "setting": "hCB1; Log [Compound] (M) -9.15521", "result": -3.346}, {"measurement": "Gi1 hCB1 response", "setting": "hCB1; Log [Compound] (M) -9.61989", "result": -13.3061}, {"measurement": "Gi1 hCB1 response", "setting": "hCB1; Log [Compound] (M) -10.0969", "result": -9.456}, {"measurement": "Gi1 hCB1 response", "setting": "hCB1; Log [Compound] (M) -10.5529", "result": 6.658}, {"measurement": "Gi1 hCB1 response", "setting": "hCB1; Log [Compound] (M) -11.0177", "result": 9.836}, {"measurement": "Gi1 hCB1 response", "setting": "hCB1; Log [Compound] (M) -11.4949", "result": 13.8426}, {"measurement": "Gi1 hCB1 response", "setting": "hCB1; Log [Compound] (M) -11.9208", "result": 7.912}, {"measurement": "Gi1 hCB1 response", "setting": "hCB1; Log [Compound] (M) -12.3979", "result": 17.8713}, {"measurement": "Gi1 hCB1 response", "setting": "hCB1; Log [Compound] (M) -12.8861", "result": 0.7271}, {"measurement": "Gi1 hCB1 response", "setting": "hCB1; Log [Compound] (M) -13, individual replicate values", "result": "-6.01 and 6.502"}, {"measurement": "Gi1 hCB1", "setting": "hCB1; Log [Compound] (M) -4.22186", "result": -1.453}, {"measurement": "GoB hCB1", "setting": "hCB1; Log [Compound] (M) -4.22186", "result": -21.3927}, {"measurement": "Gi1 hCB1", "setting": "hCB1; Log [Compound] (M) -4.63927", "result": -2.47}, {"measurement": "GoB hCB1", "setting": "hCB1; Log [Compound] (M) -4.63927", "result": -23.227}, {"measurement": "Gi1 hCB1", "setting": "hCB1; Log [Compound] (M) -5.05788", "result": -11.3501}, {"measurement": "GoB hCB1", "setting": "hCB1; Log [Compound] (M) -5.05788", "result": -26.2122}, {"measurement": "Gi1 hCB1", "setting": "hCB1; Log [Compound] (M) -5.47381", "result": -11.1959}, {"measurement": "GoB hCB1", "setting": "hCB1; Log [Compound] (M) -5.47381", "result": -26.6258}, {"measurement": "Gi1 hCB1", "setting": "hCB1; Log [Compound] (M) -5.89285", "result": -9.5}, {"measurement": "GoB hCB1", "setting": "hCB1; Log [Compound] (M) -5.89285", "result": -20.8711}, {"measurement": "Gi1 hCB1", "setting": "hCB1; Log [Compound] (M) -6.31878", "result": -8.93}, {"measurement": "GoB hCB1", "setting": "hCB1; Log [Compound] (M) -6.31878", "result": -17.76}, {"measurement": "Gi1 hCB1", "setting": "hCB1; Log [Compound] (M) -6.72585", "result": -4.983}, {"measurement": "GoB hCB1", "setting": "hCB1; Log [Compound] (M) -6.72585", "result": -9.883}, {"measurement": "Gi1 hCB1", "setting": "hCB1; Log [Compound] (M) -7.14267", "result": 0.7674}, {"measurement": "GoB hCB1", "setting": "hCB1; Log [Compound] (M) -7.14267", "result": -5.046}, {"measurement": "Gi1 hCB1", "setting": "hCB1; Log [Compound] (M) -7.55284", "result": 2.355}, {"measurement": "GoB hCB1", "setting": "hCB1; Log [Compound] (M) -7.55284", "result": 0.4032}, {"measurement": "Gi1 hCB1", "setting": "hCB1; Log [Compound] (M) -8", "result": 1.985}, {"measurement": "GoB hCB1", "setting": "hCB1; Log [Compound] (M) -8", "result": -1.107}, {"measurement": "Gi1 hCB1", "setting": "hCB1; Log [Compound] (M) -8.22186", "result": 1.292}, {"measurement": "GoB hCB1", "setting": "hCB1; Log [Compound] (M) -8.22186", "result": -1.989}, {"measurement": "Gi1 hCB1", "setting": "hCB1; Log [Compound] (M) -8.39794", "result": 1.677}, {"measurement": "GoB hCB1", "setting": "hCB1; Log [Compound] (M) -8.39794", "result": 0.9427}, {"measurement": "Gi1 hCB1", "setting": "hCB1; Log [Compound] (M) -8.68787", "result": 1.23}, {"measurement": "GoB hCB1", "setting": "hCB1; Log [Compound] (M) -8.68787", "result": -0.8377}, {"measurement": "Gi1 hCB1", "setting": "hCB1; Log [Compound] (M) -9.15521", "result": 0.9215}, {"measurement": "GoB hCB1", "setting": "hCB1; Log [Compound] (M) -9.15521", "result": -0.8737}, {"measurement": "Gi1 hCB1", "setting": "hCB1; Log [Compound] (M) -9.61989", "result": 0.08902}, {"measurement": "GoB hCB1", "setting": "hCB1; Log [Compound] (M) -9.61989", "result": -0.7118}, {"measurement": "Gi1 hCB1", "setting": "hCB1; Log [Compound] (M) -10.0969", "result": 1.816}, {"measurement": "GoB hCB1", "setting": "hCB1; Log [Compound] (M) -10.0969", "result": -0.7298}, {"measurement": "Gi1 hCB1", "setting": "hCB1; Log [Compound] (M) -10.5529", "result": 1.122}, {"measurement": "GoB hCB1", "setting": "hCB1; Log [Compound] (M) -10.5529", "result": -2.258}, {"measurement": "Gi1 hCB1", "setting": "hCB1; Log [Compound] (M) -11.0177", "result": 1.6}, {"measurement": "GoB hCB1", "setting": "hCB1; Log [Compound] (M) -11.0177", "result": 0.6549}, {"measurement": "Gi1 hCB1", "setting": "hCB1; Log [Compound] (M) -11.4949", "result": 2.232}, {"measurement": "GoB hCB1", "setting": "hCB1; Log [Compound] (M) -11.4949", "result": -1.305}, {"measurement": "Gi1 hCB1", "setting": "hCB1; Log [Compound] (M) -11.9208", "result": 2.186}, {"measurement": "GoB hCB1", "setting": "hCB1; Log [Compound] (M) -11.9208", "result": -1.089}, {"measurement": "Gi1 hCB1", "setting": "hCB1; Log [Compound] (M) -12.3979", "result": 1.137}, {"measurement": "GoB hCB1", "setting": "hCB1; Log [Compound] (M) -12.3979", "result": -1.305}, {"measurement": "Gi1 hCB1", "setting": "hCB1; Log [Compound] (M) -12.8861", "result": 1.415}, {"measurement": "GoB hCB1", "setting": "hCB1; Log [Compound] (M) -12.8861", "result": -0.9816}, {"measurement": "Gi1 hCB1", "setting": "hCB1; Log [Compound] (M) -13", "result": "2.1086 and 2.987"}, {"measurement": "GoB hCB1", "setting": "hCB1; Log [Compound] (M) -13", "result": "0.8707 and 0.2953"}, {"measurement": "pKi [95% CI]", "setting": "CB1 (rCB1); rCB1", "result": "5.9 [5.7 – 6.0]"}, {"measurement": "Ki", "setting": "CB1 (rCB1); read-out: Ki [95% CI], rCB1, [3H]-CP-55,940", "result": 1.36, "unit": "µM"}]}
